Test results: US20220062240A1, “METHODS OF TREATING CANCER USING A CLK INHIBITOR” (BioSplice Therapeutics, Inc., priority 2018, published 2022)
Read-outs that look alike come from different tables or passages of the source.

Assays:
[1] = system: lung cancer (4 cell lines); test: CellTiter-Glo Viability Assay, lung cancer; assay type: cell-based; settings: Homo sapiens, inhibition of cancer cell proliferation
[2] = target: CLK3 (Homo sapiens, UniProt P49761); test: CLK3 kinase activity assay (Z-lyte, Ser/Thr 18 peptide)
[3] = system: haematopoietic & lymphoid tumors (13 cell lines); test: CellTiter-Glo Viability Assay, haematopoietic & lymphoid tumors; assay type: cell-based; settings: Homo sapiens, inhibition of cancer cell proliferation
[4] = system: all 50 cell lines; test: CellTiter-Glo Viability Assay, average across all cell lines; assay type: cell-based; settings: Homo sapiens; across all 50 cell lines; read-out: average EC50 for inhibition of cancer cell proliferation
Method in brief: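 Cells were plated at 300-3,000 per well in their own media, then treated with compound in duplicate, with DMSO wells as controls. After four days at 37° C and 5% CO2, CellTiter-Glo was added, and luminescence was read. EC50s were fitted.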

[5] = system: MDA-MB-231-Luc; test: CellTiter-Glo Viability Assay, breast cancer; assay type: cell-based; settings: Homo sapiens, 96 h; MDA-MB-231-Luc, breast cancer, four days; read-out: EC50
[6] = system: MCF7; test: CellTiter-Glo Viability Assay, breast cancer; assay type: cell-based; settings: Homo sapiens, 96 h; MCF7, breast cancer, four days; read-out: EC50
[7] = system: ZR-75-1; test: CellTiter-Glo Viability Assay, breast cancer; assay type: cell-based; settings: Homo sapiens, 96 h; ZR-75-1, breast cancer, four days; read-out: EC50
[8] = system: T47D; test: CellTiter-Glo Viability Assay, breast cancer; assay type: cell-based; settings: Homo sapiens, 96 h, breast cancer, four days, read-out: EC50
[9] = system: BT-549; test: CellTiter-Glo Viability Assay, breast cancer; assay type: cell-based; settings: Homo sapiens, 96 h; BT-549, breast cancer, four days; read-out: EC50
[10] = system: CAMA1; test: CellTiter-Glo Viability Assay, breast cancer; assay type: cell-based; settings: Homo sapiens, CAMA-1, 96 h; CAMA1, breast cancer, four days; read-out: EC50
[11] = system: DU4475; test: CellTiter-Glo Viability Assay, breast cancer; assay type: cell-based; settings: Homo sapiens, DU-4475, 96 h; DU4475, breast cancer, four days; read-out: EC50
[12] = system: HCC1599; test: CellTiter-Glo Viability Assay, breast cancer; assay type: cell-based; settings: Homo sapiens, 96 h; HCC1599, breast cancer, four days; read-out: EC50
[13] = system: prostate cancer (5 cell lines); test: CellTiter-Glo Viability Assay, prostate cancer; assay type: cell-based; settings: Homo sapiens
[14] = system: pancreatic cancer (8 cell lines); test: CellTiter-Glo Viability Assay, pancreatic cancer; assay type: cell-based; settings: Homo sapiens, inhibition of cancer cell proliferation
[15] = system: ovarian cancer (4 cell lines); test: CellTiter-Glo Viability Assay, ovarian cancer; assay type: cell-based; settings: Homo sapiens, inhibition of cancer cell proliferation
[16] = target: T1, CLK2 (Homo sapiens, UniProt P49760); test: CLK2 kinase activity assay (Z-lyte, Ser/Thr 6 peptide); assay type: biochemical; settings: recombinant CLK2 kinase, ATP 60 μM; read-out: EC50
T1 construct: purchased Thermo Fisher (Life Technologies), Z'-LYTE Kinase Assay Kits
Method: All reactions were performed in duplicate.

[17] = system: colorectal cancer (6 cell lines); test: CellTiter-Glo Viability Assay, colorectal cancer; assay type: cell-based; settings: Homo sapiens, inhibition of cancer cell proliferation
[18] = system: liver cancer (3 cell lines); test: CellTiter-Glo Viability Assay, liver cancer; assay type: cell-based; settings: Homo sapiens, inhibition of cancer cell proliferation
[19] = A-427, A427 cell line, read-out: Lung cancer, EC50 (μM) A427
[20] = HCC78, HCC-78 cell line, read-out: Lung cancer, EC50 (μM) HCC-78
[21] = NCI-H460 cell line, read-out: Lung cancer, EC50 (μM) NCI-H460
[22] = NCI-H522 cell line, read-out: Lung cancer, EC50 (μM) NCI-H522
[23] = DND41, DND-41 cell line, read-out: Haematopoietic & Lymphoid tumors, EC50 (μM) DND-41
[24] = MV4-11, MV-4-11 cell line, read-out: Haematopoietic & Lymphoid tumors, EC50 (μM) MV-4-11
[25] = Rec1, REC-1 cell line, read-out: Haematopoietic & Lymphoid tumors, EC50 (μM) REC-1
[26] = SU-DHL-4, SUDHL4 cell line, read-out: Haematopoietic & Lymphoid tumors, EC50 (μM) SUDHL4
[27] = HL-60 cell line, read-out: Haematopoietic & Lymphoid tumors, EC50 (μM) HL-60
[28] = JM1 cell line, read-out: Haematopoietic & Lymphoid tumors, EC50 (μM) JM1
[29] = JURKAT, Clone E6-1 cell line, read-out: Haematopoietic & Lymphoid tumors, EC50 (μM) JURKAT, Clone E6-1
[30] = JeKo-1 cell line, read-out: Haematopoietic & Lymphoid tumors, EC50 (μM) JeKo-1
[31] = KASUMI-1 cell line, read-out: Haematopoietic & Lymphoid tumors, EC50 (μM) KASUMI-1
[32] = Loucy cell line, read-out: Haematopoietic & Lymphoid tumors, EC50 (μM) Loucy
[33] = MOLT-4 cell line, read-out: Haematopoietic & Lymphoid tumors, EC50 (μM) MOLT-4
[34] = TF-1 cell line, read-out: Haematopoietic & Lymphoid tumors, EC50 (μM) TF-1
[35] = TOLEDO cell line, read-out: Haematopoietic & Lymphoid tumors, EC50 (μM) TOLEDO
[36] = DU-145, read-out: Prostate cancer EC50 Du-145
[37] = PC-3, PC3 cell line, inhibition of cancer cell proliferation, read-out: Prostate cancer EC50 PC3
[38] = 22Rv1 cell line, inhibition of cancer cell proliferation, read-out: Prostate cancer EC50 22Rv1
[39] = LNCap clone FGC cell line, inhibition of cancer cell proliferation, read-out: Prostate cancer EC50 LNCap clone FGC
[40] = VCaP (Sigma) cell line, inhibition of cancer cell proliferation, read-out: Prostate cancer EC50 VCaP (Sigma)
[41] = BXPC-3, BxPC3 cell line, read-out: Pancreatic cancer, EC50 BxPC3
[42] = CAPAN-1, Capan1 cell line, read-out: Pancreatic cancer, EC50 Capan1
[43] = Capan-2, Capan2 cell line, read-out: Pancreatic cancer, EC50 Capan2
[44] = MIA PaCa-2 cell line, read-out: Pancreatic cancer, EC50 MIA PaCa-2
[45] = PANC 05.04 cell line, read-out: Pancreatic cancer, EC50 PANC 05.04
[46] = PANC-1 cell line, read-out: Pancreatic cancer, EC50 PANC-1
[47] = UPAFII cell line, read-out: Pancreatic cancer, EC50 UPAFII
[48] = PA-1, PA1 cell line, read-out: Ovarian cancer, EC50 (μM) PA1
[49] = TOV112D, TOV-112D cell line, read-out: Ovarian cancer, EC50 (μM) TOV-112D
[50] = OV-90 cell line, read-out: Ovarian cancer, EC50 (μM) OV-90
[51] = OVCAR-3 cell line, read-out: Ovarian cancer, EC50 (μM) OVCAR-3
[52] = HCT-116, HCT116 cell line, read-out: Colorectal cancer, EC50 (μM) HCT116
[53] = HT-29, HT29 cell line, read-out: Colorectal cancer, EC50 (μM) HT29
[54] = SW-620, SW620 cell line, read-out: Colorectal cancer, EC50 (μM) SW620
[55] = DLD-1 cell line, read-out: Colorectal cancer, EC50 (μM) DLD-1
[56] = SW48 cell line, read-out: Colorectal cancer, EC50 (μM) SW48
[57] = SW480 cell line, read-out: Colorectal cancer, EC50 (μM) SW480
[58] = SNU-398, SNU398 cell line, read-out: Liver cancer, EC50 SNU398
[59] = HEPG2 cell line, read-out: Liver cancer, EC50 HEPG2
[60] = PLC/PRF/5 cell line, read-out: Liver cancer, EC50 PLC/PRF/5

T1 sequence (P49760 whole entry): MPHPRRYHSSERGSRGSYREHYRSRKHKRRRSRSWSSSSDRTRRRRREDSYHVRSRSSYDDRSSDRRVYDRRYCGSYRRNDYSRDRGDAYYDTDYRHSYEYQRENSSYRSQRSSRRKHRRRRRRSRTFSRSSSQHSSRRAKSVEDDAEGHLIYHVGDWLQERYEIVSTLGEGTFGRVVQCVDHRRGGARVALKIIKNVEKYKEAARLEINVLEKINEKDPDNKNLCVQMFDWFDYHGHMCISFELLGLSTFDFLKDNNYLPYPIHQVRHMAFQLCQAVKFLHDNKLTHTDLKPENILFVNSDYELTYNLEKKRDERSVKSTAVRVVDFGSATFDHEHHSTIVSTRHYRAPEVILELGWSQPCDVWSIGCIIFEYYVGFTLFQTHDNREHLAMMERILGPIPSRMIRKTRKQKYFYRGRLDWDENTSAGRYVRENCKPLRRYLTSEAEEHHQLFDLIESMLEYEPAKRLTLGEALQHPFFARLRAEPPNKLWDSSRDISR
Chain of CLK3 (P49761 whole entry): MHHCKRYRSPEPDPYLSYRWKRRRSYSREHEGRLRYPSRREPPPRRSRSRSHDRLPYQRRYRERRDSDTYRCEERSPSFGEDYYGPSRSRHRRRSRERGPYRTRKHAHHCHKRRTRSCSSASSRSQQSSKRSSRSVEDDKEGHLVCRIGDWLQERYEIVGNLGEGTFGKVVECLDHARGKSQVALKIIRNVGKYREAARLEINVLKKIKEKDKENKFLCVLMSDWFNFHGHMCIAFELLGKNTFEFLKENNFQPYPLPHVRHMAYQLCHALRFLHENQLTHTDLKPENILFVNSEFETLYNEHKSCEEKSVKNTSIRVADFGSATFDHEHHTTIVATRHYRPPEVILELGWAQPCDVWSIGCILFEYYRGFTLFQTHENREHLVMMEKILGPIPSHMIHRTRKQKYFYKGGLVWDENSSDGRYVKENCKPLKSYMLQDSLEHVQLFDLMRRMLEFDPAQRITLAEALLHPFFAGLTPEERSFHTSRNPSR

`CN(C)C1CN(c2cc(C(=O)Nc3cc4cc(-c5cnn(C)c5)ccc4cn3)ccn2)C1` [Compound 70] was tested, and the EC50 [1, 19] was 0.605 µM, the EC50 [1, 20] was 1.12 µM and the EC50 [1, 21] was 1.13 µM. The EC50 [1, 22] was 0.389 µM, the EC50 [2] was 24.5 nM and the EC50 [3, 23] was 0.774 µM. It also gave an EC50 [3, 24] of 0.193 µM, an EC50 [3, 25] of 0.189 µM and an EC50 [3, 26] of 0.899 µM. It also gave an EC50 [3, 27] of 1.24 µM, an EC50 [3, 28] of 0.273 µM and an EC50 [3, 29] of 0.863 µM. For the same molecule, the EC50 [3, 30] was 0.347 µM, the EC50 [3, 31] was 0.555 µM and the EC50 [3, 32] was 0.617 µM. It also gave an EC50 [3, 33] of 0.643 µM, an EC50 [3, 34] of 0.785 µM and an EC50 [3, 35] of 0.25 µM. The EC50 [4] was 750 nM, the EC50 [5] was 891 nM and the EC50 [6] was 2150 nM. It also gave an EC50 [7] of 1120 nM, an EC50 [8] of 1350 nM and an EC50 [9] of 496 nM. It also gave an EC50 [10] of 788 nM, an EC50 [11] of 624 nM and an EC50 [12] of 510 nM. For the same molecule, the EC50 [13, 36] was 806 nM, the EC50 [13, 37] was 701 nM and the EC50 [13, 38] was 612 nM. For the same molecule, the EC50 [13, 39] was 1080 nM, the EC50 [13, 40] was 1060 nM and the EC50 [14, 41] was 940 nM. For the same molecule, the EC50 [14, 42] was 702 nM, the EC50 [14, 43] was 1140 nM and the EC50 [14, 44] was 461 nM. It also gave an EC50 [14, 45] of 713 nM, an EC50 [14, 46] of 1220 nM and an EC50 [14, 47] of 385 nM. It also gave an EC50 [15, 48] of 0.585 µM, an EC50 [15, 49] of 0.593 µM and an EC50 [15, 50] of 1.45 µM. For the same molecule, the EC50 [15, 51] was 0.37 µM, the EC50 [16] was 1.6 nM and the EC50 [17, 52] was 0.465 µM. The EC50 [17, 53] was 1.09 µM, the EC50 [17, 54] was 0.352 µM and the EC50 [17, 55] was 0.481 µM. It also gave an EC50 [17, 56] of 0.285 µM, an EC50 [17, 57] of 0.739 µM and an EC50 [18, 58] of 205 nM. The EC50 [18, 59] was 750 nM and the EC50 [18, 60] was 1470 nM.
For `CN1CCC2(CC1)CN(c1cc(C(=O)Nc3cc4cc(-c5cnn(C)c5)ccc4cn3)ccn1)C2` [Compound 71], the EC50 [1, 19] was 0.198 µM, the EC50 [1, 20] was 0.304 µM and the EC50 [1, 21] was 0.248 µM. The EC50 [1, 22] was 0.095 µM, the EC50 [2] was 16.2 nM and the EC50 [3, 23] was 0.191 µM. For the same molecule, the EC50 [3, 24] was 0.056 µM, the EC50 [3, 25] was 0.061 µM and the EC50 [3, 26] was 0.208 µM. It also gave an EC50 [3, 27] of 0.432 µM, an EC50 [3, 28] of 0.054 µM and an EC50 [3, 29] of 0.431 µM. It also gave an EC50 [3, 30] of 0.062 µM, an EC50 [3, 31] of 0.129 µM and an EC50 [3, 32] of 0.146 µM. It also gave an EC50 [3, 33] of 0.2 µM, an EC50 [3, 34] of 0.368 µM and an EC50 [3, 35] of 0.073 µM. It also gave an EC50 [4] of 232 nM, an EC50 [5] of 292 nM and an EC50 [6] of 860 nM. It also gave an EC50 [7] of 365 nM, an EC50 [8] of 493 nM and an EC50 [9] of 215 nM. For the same molecule, the EC50 [10] was 307 nM, the EC50 [11] was 140 nM and the EC50 [12] was 177 nM. For the same molecule, the EC50 [13, 36] was 252 nM, the EC50 [13, 37] was 205 nM and the EC50 [13, 38] was 232 nM. It also gave an EC50 [13, 39] of 333 nM, an EC50 [13, 40] of 466 nM and an EC50 [14, 41] of 383 nM. The EC50 [14, 42] was 225 nM, the EC50 [14, 43] was 344 nM and the EC50 [14, 44] was 90 nM. For the same molecule, the EC50 [14, 45] was 289 nM, the EC50 [14, 46] was 352 nM and the EC50 [14, 47] was 140 nM. The EC50 [15, 48] was 0.209 µM, the EC50 [15, 49] was 0.117 µM and the EC50 [15, 50] was 0.334 µM. The EC50 [15, 51] was 0.092 µM, the EC50 [16] was 1.1 nM and the EC50 [17, 52] was 0.105 µM. For the same molecule, the EC50 [17, 53] was 0.247 µM, the EC50 [17, 54] was 0.068 µM and the EC50 [17, 55] was 0.137 µM. It also gave an EC50 [17, 56] of 0.052 µM, an EC50 [17, 57] of 0.145 µM and an EC50 [18, 58] of 48 nM. It also gave an EC50 [18, 59] of 165 nM and an EC50 [18, 60] of 459 nM.
